From article PMC8536124 (International Journal of Molecular Sciences, 2021)
Where two headings read alike, the source gives them in different places.

Columns and labels:
[1] = Compound stability in cell culture media (TLC); settings: 5 μM in DMEM and EMEM, 72 h
Experimental: Prior to this assay, compound stability in cell culture media was evaluated after 72 h, using a thin-layer chromatography (TLC)-based protocol, with the necessary modifications [57, 58].
The stability of the assessed compounds in the culture media was evaluated by thin layer chromatography (TLC), this representing a viable and easy to achieve technique for this specific endpoint [57, 58]. […] The solutions were incubated for 72 h, after which the medium was extracted in CHCl3. […] The plate was successively developed with I2 vapors, UV light, and bromocresol green to determine various additional spots corresponding to some decomposition byproducts.

[2] = test system: EKVX; assay: NCI-60 screening (SRB); type: cell-based, human; settings: five-dose; for GI50 / LC50: Homo sapiens
[3] = test system: KM12; assay: NCI-60 screening (SRB); type: cell-based, human; settings: five-dose; for GI50 / CC50: Homo sapiens; for CC50: read-out: LC50 (the source's name)
[4] = test system: SW-620; assay: NCI-60 screening (SRB); type: cell-based, human; settings: five-dose; for GI50 / CC50: Homo sapiens; for CC50: read-out: LC50 (the source's name)
[5] = test system: NCI-H226; assay: NCI-60 screening (SRB); type: cell-based, human; settings: five-dose
[6] = test system: SF-268; assay: NCI-60 screening (SRB); type: cell-based, human; settings: five-dose; for GI50 / CC50: Homo sapiens; for CC50: read-out: LC50 (the source's name)
[7] = test system: HT29; assay: NCI-60 screening (SRB); type: cell-based, human; settings: for GI50 / CC50: Homo sapiens, HT-29, five-dose; for CC50: read-out: LC50 (the source's name); for TGI: five-dose
[8] = test system: NCI-60 cancer cell line panel; assay: NCI-60 screening (SRB), full panel; type: cell-based, human; settings: for Positive Cytostatic Effect (cell lines with percent growth 0 to 50 / total) / Positive Cytotoxic Effect (cell lines with percent growth <0 / total) / activity at 10 µM: 1 dose 10 µM; for GI50 / CC50 / TGI MG_MID60: five-dose; for CC50: read-out: LC50 MG_MID60; for activity at 10 µM: 60 cell lines, 48 h; for selectivity class: toward some individual cell lines at the LC50 level
Description: The experimental data allow the assessment of the cytostatic effect, indicated by growth inhibition values ranging between 0 and 100, as well as of the cytotoxic effect, indicated by negative values.
The mean GI50 (molar concentration of the compound that inhibits 50% net cell growth), TGI (molar concentration of the compound leading to the total inhibition), and LC50 (molar concentration of the compound leading to 50% net cell death (presented in negative logarithm)) values across each cell line are shown in Table 2.
The selectivity index (SI), calculated as the ratio between the full panel MG_MID60 (μM) of compounds 4, 6, and 9 by their respective subpanels MG_MID of the cell line (μM), was introduced as a quantification tool for the selectivity of each compound in terms of anticancer effect (Table 3).
Primary anticancer assays were performed according to the NCI protocol, as described elsewhere (see e.g., http://dtp.nci.nih.gov accessed on 1 November 2018). The compounds were added at a single concentration, and the cell cultures were incubated for 48 h. The end point determinations were made with a protein-binding dye, sulforhodamine B (SRB). […] The percentage of growth was evaluated spectrophotometrically versus controls not treated with test agents after 48 h exposure and using SRB protein assay to estimate cell viability or growth. Three antitumor activity dose-response parameters were calculated for each cell line. Furthermore, mean graph midpoints (MG_MID) were calculated for each of the parameters, giving an average activity parameter over all cell lines for the tested compound. For the MG_MID calculation, insensitive cell lines were included with the highest concentration tested.

[9] = test system: HCT-15; assay: NCI-60 screening (SRB); type: cell-based, human; settings: five-dose; for GI50 / CC50: Homo sapiens; for CC50: read-out: LC50 (the source's name)
[10] = test system: A498; assay: NCI-60 screening (SRB); type: cell-based, human; settings: A498, five-dose; for GI50 / CC50: Homo sapiens; for CC50: read-out: LC50 (the source's name)
[11] = test system: SK-MEL-28; assay: NCI-60 screening (SRB); type: cell-based, human; settings: five-dose; for GI50 / CC50: Homo sapiens; for CC50: read-out: LC50 (the source's name)
[12] = test system: A549/ATCC; assay: NCI-60 screening (SRB); type: cell-based, human; settings: five-dose; for GI50 / CC50: Homo sapiens; for CC50: read-out: LC50 (the source's name)
[13] = test system: ACHN; assay: NCI-60 screening (SRB); type: cell-based, human; settings: five-dose; for GI50 / LC50: Homo sapiens
[14] = test system: RXF 393; assay: NCI-60 screening (SRB); type: cell-based, human; settings: five-dose; for GI50 / CC50: Homo sapiens; for CC50: read-out: LC50 (the source's name)
[15] = test system: chorioallantoic membrane; assay: HET-CAM irritation assay
Description: In this assay, the irritation potential may range from 0 to 21, with 0 being non-irritant and 21 being the most irritant. […] The irritation score was established according to Luepke scale: 0–0.9 indicates non-irritant, 1–4.9 indicates weakly irritant, 5–8.9 indicates moderately irritant, while 9–21 means strongly irritant (Table 6) [88, 89].
The in vivo Hen’s Egg Chorioallantoic Membrane Test (HET-CAM) assay determines a potential irritant effect on the vascular plexus of the chorioallantoic membrane [94]. The HET-CAM method was carried out following ICCVAM recommendations published in November 2016 in Appendix G and adapted to our conditions [88, 95, 96]. Thus, a volume of 300 µL of control or test solution was applied and the modifications produced at the CAM level were monitored by means of stereomicroscopy (Discovery 8 Stereomicroscope, Zeiss), registering significant images (Axio CAM 105 color, Zeiss), before application after 5 min of contact with the samples. All images were processed using Zeiss ZEN software, Gimp 2.8, and ImageJ software.
Negative control was represented by distilled water and solvent control DMSO 0.5%, and positive control by sodium lauryl sulphate (SLS) 0.5% in distillate water. The test substances were tested in concentrations of 1 µM.
Finally, the following reactions were: hemorrhage—H (blood vessel bleeding), vascular lysis—L (disintegration of blood vessels), coagulation—C (intra- or extra-vascular protein denaturizing). A variety of analysis methods may be used to assess irritancy potential of test substances. One analysis method that has been used extensively is an irritation score (IS). The formula used to generate an IS value is:(1) IS=5×301−Sec H/300+7×300−Sec L/300+9×301−Sec C/300 where: H = hemorrhage; L = vessel lysis; C = coagulation; hemorrhage time (Sec H) = onset of hemorrhage reactions on CAM (in seconds); lysis time (Sec L) = onset of vessel lysis on CAM (in seconds); coagulation time (Sec C) = onset of coagulation formation on CAM (in seconds). Means values are obtained. […] The IS values range on a scale between 0 and 21.

[16] = test system: SK-MEL-28 cells; assay: DAPI staining, nuclear morphology; type: cell-based, human; settings: SK-MEL28; 0.1, 1, 5 μM, 24 h
Experimental: (§1) The cells were cultured in 24-well plates at 2 × 10^5 cells/well. Two samples (compounds 4 and 6) of three different concentrations (0.1, 1, and 5 μM) and three concentrations of DMSO (0.1, 1, 5 μM) were used to stimulate the cells. The immunofluorescent staining technique was performed according to the protocol in [92]. Thus, after 24 h of stimulation, the cells were fixed by adding 4% paraformaldehyde and incubating at room temperature for one hour. After fixation, cell permeability was performed with 2% Triton X solution in phosphate-buffered saline (PBS). After 30 min of incubation at room temperature, blocking of permeabilization was performed with 0.01% Triton X solution and incubation at RT for one hour. DAPI staining was used in a concentration of 300 nM to visualize the nuclei. The cells were analyzed by fluorescence microscope at 40× magnification using CellSens V1.15 software (Olympus, Tokyo, Japan) and Image J software.

[17] = test system: RPMI cells; assay: DAPI staining, nuclear morphology; type: cell-based, human; settings: 24 h
Experimental: as §1

[18] = test system: HL-60(TB); assay: NCI-60 screening (SRB); type: cell-based, human; settings: for TGI / GI50 / CC50: HL-60(TB), five-dose; for GI50 / CC50: Homo sapiens; for CC50: read-out: LC50 (the source's name)
[19] = test system: SNB-75; assay: NCI-60 screening (SRB); type: cell-based, human; settings: five-dose
[20] = Homo sapiens, bound, read-out: GI50 against all human tumor cells
[21] = Homo sapiens, mean graph midpoint, full panel, read-out: GI50 MG_MID60
[22] = Homo sapiens, mean graph midpoint, full panel
[23] = Homo sapiens, read-out: Mean Growth, %
[24] = Homo sapiens, read-out: Range of Growth, %
[25] = mean graph midpoint, full panel
[26] = Homo sapiens, read-out: LC50 (the source's name)
[27] = HL-60(TB) (Leukemia), 1 dose 10 µM

CCN1CCN(C(=O)[C@]23CCC(C)(C)C[C@H]2C2=CC[C@@H]4[C@@]5(C)C/C(=C/c6cccnc6)C(=O)C(C)(C)[C@@H]5CC[C@@]4(C)[C@]2(C)CC3)CC1 [Compound 6]
stability in cell culture media (TLC) [1]: no signs of decomposition | GI50 [2]: 1.9 µM | LC50 [2]: 43.5 µM | TGI [2]: 6.48 µM | GI50 [3]: 1.58 µM | CC50 [3]: 6.75 µM | TGI [3]: 3.26 µM | GI50 [4]: 1.78 µM | CC50 [4]: 8.46 µM | TGI [4]: 3.88 µM | GI50 ([5]; Homo sapiens): 1.76 µM | TGI [5]: 3.80 µM | GI50 [6]: 1.59 µM | CC50 [6]: 85.7 µM | TGI [6]: 4.79 µM | GI50 [7]: 1.71 µM | CC50 [7]: 44.5 µM | TGI [7]: 4.67 µM | Positive Cytostatic Effect (cell lines with percent growth 0 to 50 / total) [8]: 30/60 | Positive Cytotoxic Effect (cell lines with percent growth <0 / total) [8]: 4/60 | GI50 [8, 20]: < 4 µM | GI50 [8, 21]: 1.52 µM | CC50 [8, 22]: 32.4 µM | activity at 10 µM [8, 23]: 23.4% | activity at 10 µM [8, 24]: -91 to 83.8% | TGI MG_MID60 [8, 25]: 6.29 µM | GI50 ([8]; mean graph midpoint, full panel, read-out: GI50 MG_MID60): 1.53 µM | selectivity class [8]: moderate selectivity (Ratios between 3 and 6 are indicators of moderate selectivity) | GI50 [9]: 1.08 µM | CC50 [9]: 6.79 µM | TGI [9]: 2.71 µM | TGI [10]: 3.53 µM | GI50 [10]: 1.66 µM | CC50 [10]: 7.48 µM | GI50 [11]: 1.48 µM | CC50 [11]: 5.41 µM | TGI [11]: 2.83 µM | GI50 [12]: 2.62 µM | CC50 [12]: > 100 µM | TGI [12]: 13.4 µM | GI50 [13]: 2.6 µM | LC50 [13]: 32.4 µM | TGI [13]: 10.5 µM | GI50 [14]: 1.42 µM | CC50 [14]: 5.41 µM | TGI [14]: 2.77 µM | Irritation Score ([15]; 300 µL, 5 min, test compounds 1 µM, scale 0 to 21): 0 | Type of Effect ([15]; Luepke scale): Non-irritant | nuclear morphology (DAPI) [16]: dose-dependent effect was recorded in terms of membrane blebbing, nuclear condensation, and fragmentation | nuclear morphology (DAPI) ([17]; 0.1 µM): nuclear fragmentation | nuclear morphology (DAPI) ([17]; 1 µM): chromatin condensation | nuclear morphology (DAPI) ([17]; 5 µM (highest concentration)): apoptotic bodies | TGI [18]: 9.02 µM | GI50 [18]: 2.1 µM | CC50 [18]: > 100 µM

CCN1CCN(C(=O)[C@]23CC[C@@H](C)[C@H](C)[C@H]2C2=CC[C@@H]4[C@@]5(C)C/C(=C/c6cccnc6)C(=O)C(C)(C)[C@@H]5CC[C@@]4(C)[C@]2(C)CC3)CC1 [Compound 9, N-(2-{3-Pyridinylidene}-3-oxoursan-12-en-28-oyl)-ethylpiperazine]
GI50 [2]: 2.17 µM | LC50 [2]: 61.7 µM | TGI [2]: 7.32 µM | GI50 [3]: 1.75 µM | CC50 [3]: 7.23 µM | TGI [3]: 3.56 µM | GI50 [4]: 1.9 µM | CC50 [4]: 9.05 µM | TGI [4]: 4.14 µM | GI50 ([5]; Homo sapiens): 1.89 µM | CC50 [5, 26]: 8.78 µM | TGI [5]: 4.07 µM | GI50 [6]: 1.77 µM | CC50 [6]: 9.15 µM | TGI [6]: 4.02 µM | GI50 [7]: 1.93 µM | CC50 [7]: > 100 µM | TGI [7]: 5.36 µM | Positive Cytostatic Effect (cell lines with percent growth 0 to 50 / total) [8]: 33/59 | Positive Cytotoxic Effect (cell lines with percent growth <0 / total) [8]: 5/59 | GI50 [8, 20]: < 4 µM | GI50 [8, 21]: 1.93 µM | CC50 [8, 22]: 38 µM | activity at 10 µM [8, 23]: 25.3% | activity at 10 µM [8, 24]: -38.2 to 65.7% | TGI MG_MID60 [8, 25]: 5.29 µM | selectivity class [8]: moderate selectivity (Ratios between 3 and 6 are indicators of moderate selectivity) | GI50 [9]: 1.66 µM | CC50 [9]: 6.41 µM | TGI [9]: 3.26 µM | TGI [10]: 4.05 µM | GI50 [10]: 1.9 µM | CC50 [10]: 8.65 µM | GI50 [11]: 1.74 µM | CC50 [11]: 5.69 µM | TGI [11]: 3.15 µM | GI50 [12]: 3.15 µM | CC50 [12]: > 100 µM | TGI [12]: 16.8 µM | GI50 [13]: 2.46 µM | LC50 [13]: 22.6 µM | TGI [13]: 6.45 µM | GI50 ([19]; Homo sapiens): 1.57 µM | CC50 [19, 26]: 39.9 µM | TGI [19]: 8.91 µM | GI50 [14]: 1.45 µM | CC50 [14]: 5.53 µM | TGI [14]: 2.83 µM | Growth % [18, 27]: −38.20% | cell death [18, 27]: 38.20% | TGI [18]: 8.97 µM | GI50 [18]: 2.78 µM | CC50 [18]: > 100 µM
